System: truies
Assay: Synchronisation of parturition in sows: interval between injection of the active principle and farrowing
Assay type: in vivo
Settings: single i.m. injection on day 113 of gestation (Ho = 9 h); for intervalle de temps entre l'injection du principe actif et la mise bas: 20 à 30 H (number of animals) / intervalle de temps entre l'injection du principe actif et la mise bas: 30 à 36 H (number of animals) / intervalle de temps entre l'injection du principe actif et la mise bas: - 20 H (number of animals): produit A 2 mg/kg (n = 24); for intervalle de temps entre l'injection du principe actif et la mise bas: 20 à 30 H (number of animals) / intervalle de temps entre l'injection du principe actif et la mise bas: 20 à 30 H (% des animaux): farrowing 20 to 30 h after injection; for intervalle de temps entre l'injection du principe actif et la mise bas: 30 à 36 H (number of animals) / intervalle de temps entre l'injection du principe actif et la mise bas: 30 à 36 H (% des animaux): farrowing 30 to 36 h after injection; for intervalle de temps entre l'injection du principe actif et la mise bas: - 20 H (number of animals) / intervalle de temps entre l'injection du principe actif et la mise bas: - 20 H (% des animaux): farrowing less than 20 h after injection; for intervalle de temps entre l'injection du principe actif et la mise bas: 20 à 30 H (% des animaux) / intervalle de temps entre l'injection du principe actif et la mise bas: 30 à 36 H (% des animaux) / intervalle de temps entre l'injection du principe actif et la mise bas: - 20 H (% des animaux): produit A 2 mg/kg
Description: L'essai a été réalisé chez des truies. Les truies ont été sélectionnées en fonction des critères suivants : • truies de même origine (même schéma de sélection), • truies de même rang de parturition (3ème), • saillie par le même verrat ou insémination artificielle avec semence de même origine, • nombre de saillies ou d'inséminations identiques, • saillie ou insémination sur première chaleur post-sevrage (intervalle sevrage saillie identique ou très proche), • durée d'allaitement identique.
Les truies sont divisées en 3 lots de n animaux : • un lot témoin ne reçoit aucun produit, • un lot reçoit une injection intra-musculaire de 2 mg/kg de produit A ou 17béta-hydroxy 11béta-(4-diméthylaminophényl) 17alpha-(prop-1-ynyl) estra-4,9-dièn-3-one, le 113ème jour de la gestation, • un lot reçoit une injection intra-musculaire de 175 mcg de cloprosténol sous forme de PLANATE^ R par truie, le 113 ème jour de la gestation.
On a mesuré l'intervalle de temps entre l'injection du principe actif et la mise bas : le tableau suivant résume les résultats obtenus.
1.- Animaux traités (Ho = 9 heures le 113ème jour de gestation.

[1] = cloprosténol 175 mcg per sow (n = 23)

Structure (SMILES) | intervalle de temps entre l'injection du principe actif et la mise bas: 20 à 30 H (number of animals) [1] | intervalle de temps entre l'injection du principe actif et la mise bas: 30 à 36 H (number of animals) [1] | intervalle de temps entre l'injection du principe actif et la mise bas: - 20 H (number of animals) [1] | intervalle de temps entre l'injection du principe actif et la mise bas: 20 à 30 H (% des animaux) (cloprosténol 175 mcg per sow) [%] | intervalle de temps entre l'injection du principe actif et la mise bas: 30 à 36 H (% des animaux) (cloprosténol 175 mcg per sow) | intervalle de temps entre l'injection du principe actif et la mise bas: - 20 H (% des animaux) (cloprosténol 175 mcg per sow) | intervalle de temps entre l'injection du principe actif et la mise bas: + 36 H (number of animals) (cloprosténol 175 mcg per sow (n = 23), farrowing more than 36 h after injection) | intervalle de temps entre l'injection du principe actif et la mise bas: + 36 H (% des animaux) (cloprosténol 175 mcg per sow, farrowing more than 36 h after injection) [%]
CC#C[C@]1(O)CC[C@H]2[C@@H]3CCC4=CC(=O)CCC4=C3[C@@H](c3ccc(N(C)C)cc3)C[C@@]21C [Produit A, 17béta-hydroxy 11béta-(4-diméthylaminophényl) 17alpha-(prop-1-ynyl) estra-4,9-dièn-3-one] | 22 | 1 | 1 | 92 | 4% | 4% |  | 
O=C(O)CCC/C=C\CC1C(O)CC(O)C1/C=C/C(O)COc1cccc(Cl)c1 (centres unmarked) [Cloprosténol, cloprosténol] | 18 | 1 | 1 | 78 | 4,5% | 4,5% | 3 | 13
